For assay [1], the system named is Salmonella typhi. Briefly: Antibacterial activity against Salmonella enterica subsp. enterica serovar Typhi after 24 hr by twofold serial dilution method. The class given is functional.
In assay [2] the test system is Cryptococcus neoformans. Briefly: Antifungal activity against Cryptococcus neoformans after 72 to 96 hr by two-fold serial dilution method. Type of assay: functional.
In assay [3] the test system is Aspergillus flavus. The experiment in a line: Antifungal activity against Aspergillus flavus after 72 to 96 hr by two-fold serial dilution method. Type of assay: functional.
For assay [4], the system named is Staphylococcus aureus. The experiment in a line: Antibacterial activity against Staphylococcus aureus after 24 hr by two-fold serial dilution method. Type of assay: functional.
The subject of assay [5] is Candida albicans. The experiment in a line: Antifungal activity against Candida albicans after 72 to 96 hr by two-fold serial dilution method. Type of assay: functional.
In assay [6] the test system is Aspergillus niger. The experiment in a line: Antifungal activity against Aspergillus niger after 72 to 96 hr by two-fold serial dilution method. The class given is functional.
For assay [7], the system named is Pseudomonas aeruginosa. Briefly: Antibacterial activity against Pseudomonas aeruginosa after 24 hr by twofold serial dilution method. The class given is functional.
The test system of assay [8] is Bacillus subtilis. The experiment in a line: Antibacterial activity against Bacillus subtilis after 24 hr by two-fold serial dilution method. Type of assay: functional.
Assay [9] has as its system Rhizopus. Briefly: Antifungal activity against Rhizopus sp. after 72 to 96 hr by two-fold serial dilution method. The class given is functional.
Assay [10] concerns Escherichia coli. The experiment in a line: Antibacterial activity against Escherichia coli after 24 hr by two-fold serial dilution method. Type of assay: functional.
Assay [11] has as its system Aspergillus flavus. The experiment in a line: Antifungal activity against Aspergillus flavus assessed as growth inhibition at 200 ug/mL after 72 to 96 hr by two-fold serial dilution method. Type of assay: functional, organism-based.
The test system of assay [12] is Rhizopus. Briefly: Antifungal activity against Rhizopus sp. assessed as growth inhibition at 200 ug/mL after 72 to 96 hr by two-fold serial dilution method. The class given is functional, organism-based.
Assay [13] deals with Bacillus subtilis. The experiment in a line: Antibacterial activity against Bacillus subtilis assessed as growth inhibition at 200 ug/mL after 24 hr by two-fold serial dilution method. Type of assay: functional, organism-based.
The subject of assay [14] is Escherichia coli. The experiment in a line: Antibacterial activity against Escherichia coli assessed as growth inhibition at 200 ug/mL after 24 hr by two-fold serial dilution method. The class given is functional, organism-based.
Assay [15] concerns Aspergillus niger. The experiment in a line: Antifungal activity against Aspergillus niger assessed as growth inhibition at 200 ug/mL after 72 to 96 hr by two-fold serial dilution method. The class given is functional, organism-based.
Assay [16] concerns Cryptococcus neoformans. Briefly: Antifungal activity against Cryptococcus neoformans assessed as growth inhibition at 200 ug/mL after 72 to 96 hr by two-fold serial dilution method. The class given is functional, organism-based.

Converted amounts (≈) assume the structure as drawn. The source made the active and inactive calls. No cut-off for these calls is given here.

By MIC is commonly meant the least concentration at which growth counts as inhibited. Read a high MIC as a need for much substance.

For the molecule `Cc1ccc(C2C(C)C(=O)C(C)C(c3ccc(C)cc3)N2C(=O)CCl)cc1` (configuration not stated), the MIC was 100 µg/mL (≈ 260 µM) in assay [1]; 50 µg/mL (≈ 130 µM) in assay [2]; 50 µg/mL (≈ 130 µM) in assay [3]; 200 µg/mL (≈ 521 µM) in assay [4]; 50 µg/mL (≈ 130 µM) in assay [5]; 100 µg/mL (≈ 260 µM) in assay [6]. In addition, the minimal inhibitory concentration (MIC) in assay [7] was 200 µg/mL (≈ 521 µM); in assay [8], 100 µg/mL (≈ 260 µM); in assay [9], 25 µg/mL (≈ 65.1 µM); in assay [10], 50 µg/mL (≈ 130 µM).

For `CC1C(=O)C(C)C(c2ccc(Cl)cc2)N(C(=O)CCl)C1c1ccc(Cl)cc1` (configuration not stated), the MIC worked out at 25 µg/mL (≈ 58.9 µM) in assay [1]; 50 µg/mL (≈ 118 µM) in assay [2]; 100 µg/mL (≈ 235 µM) in assay [3]; 12.5 µg/mL (≈ 29.4 µM) in assay [4]; 200 µg/mL (≈ 471 µM) in assay [5]; 50 µg/mL (≈ 118 µM) in assay [6]. The minimum inhibitory concentration (MIC) in [7] stood at 100 µg/mL (≈ 235 µM); in assay [8] it was 100 µg/mL (≈ 235 µM); in assay [9], 100 µg/mL (≈ 235 µM); in assay [10] it was 50 µg/mL (≈ 118 µM).

On to `CC1C(=O)CC(c2ccccc2)N(C(=O)CCl)C1c1ccccc1` (configuration not stated), for which the MIC in [1] came out at 50 µg/mL (≈ 146 µM); in [2], 100 µg/mL (≈ 293 µM); in assay [3] it was 200 µg/mL (≈ 585 µM); in assay [4] it was 100 µg/mL (≈ 293 µM); in assay [5], 200 µg/mL (≈ 585 µM); in assay [6], 200 µg/mL (≈ 585 µM). Further, the MIC was determined as 200 µg/mL (≈ 585 µM) in assay [7], 100 µg/mL (≈ 293 µM) in [8], 100 µg/mL (≈ 293 µM) in assay [9] and 100 µg/mL (≈ 293 µM) in assay [10].

With `CC(C)C1C(=O)CC(c2ccccc2)N(C(=O)CCl)C1c1ccccc1` (configuration not stated), the “growth inhibition (GI)” value in [11] is “inactive”. The minimal inhibitory concentration (MIC) in assay [1] is 100 µg/mL (≈ 270 µM); in assay [2] it was 200 µg/mL (≈ 541 µM); in assay [4], 100 µg/mL (≈ 270 µM); in assay [5], 50 µg/mL (≈ 135 µM); in [6] it was 100 µg/mL (≈ 270 µM); in [7], 200 µg/mL (≈ 541 µM). The MIC was determined as 200 µg/mL (≈ 541 µM) in assay [8], 100 µg/mL (≈ 270 µM) in assay [9] and 200 µg/mL (≈ 541 µM) in assay [10].

Take `O=C1CC(c2ccccc2)N(C(=O)CCl)C(c2ccccc2)C1` (configuration not stated): the MIC turned out to be 50 µg/mL (≈ 153 µM) in assay [1]; 100 µg/mL (≈ 305 µM) in assay [3]; 200 µg/mL (≈ 610 µM) in assay [4]; 200 µg/mL (≈ 610 µM) in assay [5]; 100 µg/mL (≈ 305 µM) in [7]. For the same molecule, the “growth inhibition (GI)” value in assay [12], in [13], in [14], in assay [15] and in [16] was “inactive” throughout.

Consider `COc1ccc(C2C(C)C(=O)C(C)C(c3ccc(OC)cc3)N2C(=O)CCl)cc1` (configuration not stated), for which the MIC in [1] came out at 25 µg/mL (≈ 60.1 µM); in [2], 100 µg/mL (≈ 240 µM); in assay [3], 50 µg/mL (≈ 120 µM); in assay [4], 50 µg/mL (≈ 120 µM); in assay [5], 100 µg/mL (≈ 240 µM); in assay [6], 25 µg/mL (≈ 60.1 µM). The MIC in assay [7] turned out to be 100 µg/mL (≈ 240 µM); in [8], 50 µg/mL (≈ 120 µM); in assay [9], 100 µg/mL (≈ 240 µM); in assay [10] it was 100 µg/mL (≈ 240 µM).

Take `CCC1C(=O)CC(c2ccc(Cl)cc2)N(C(=O)CCl)C1c1ccc(Cl)cc1` (configuration not stated): the MIC in assay [1] was found to be 12.5 µg/mL (≈ 29.4 µM); in assay [2], 50 µg/mL (≈ 118 µM); in [3], 25 µg/mL (≈ 58.9 µM); in assay [4], 25 µg/mL (≈ 58.9 µM); in assay [5] it was 100 µg/mL (≈ 235 µM); in assay [6] it was 12.5 µg/mL (≈ 29.4 µM). The MIC in assay [7] is 50 µg/mL (≈ 118 µM); in assay [8], 25 µg/mL (≈ 58.9 µM); in [9], 50 µg/mL (≈ 118 µM); in [10] it was 50 µg/mL (≈ 118 µM).

As to `CC1C(=O)CC(c2ccc(Cl)cc2)N(C(=O)CCl)C1c1ccc(Cl)cc1` (configuration not stated), the MIC in assay [1] is 100 µg/mL (≈ 243 µM); in assay [2], 100 µg/mL (≈ 243 µM); in [3], 25 µg/mL (≈ 60.9 µM); in assay [4] it was 50 µg/mL (≈ 122 µM); in assay [5], 100 µg/mL (≈ 243 µM); in [6], 50 µg/mL (≈ 122 µM). Moreover, the MIC is 12.5 µg/mL (≈ 30.4 µM) in assay [7], 100 µg/mL (≈ 243 µM) in assay [8], 25 µg/mL (≈ 60.9 µM) in assay [9] and 25 µg/mL (≈ 60.9 µM) in assay [10].

Turning to `Cc1ccc(C2CC(=O)C(C)C(c3ccc(C)cc3)N2C(=O)CCl)cc1` (configuration not stated), the MIC in assay [1] was 50 µg/mL (≈ 135 µM); in assay [2], 25 µg/mL (≈ 67.6 µM); in assay [3], 12.5 µg/mL (≈ 33.8 µM); in [4], 100 µg/mL (≈ 270 µM); in [5], 50 µg/mL (≈ 135 µM); in assay [6], 12.5 µg/mL (≈ 33.8 µM). The MIC in assay [7] was 100 µg/mL (≈ 270 µM); in [8], 12.5 µg/mL (≈ 33.8 µM); in [9] it was 50 µg/mL (≈ 135 µM); in assay [10], 25 µg/mL (≈ 67.6 µM).

Take `C[C@@H]1[C@H](O)[C@@H](C)/C=C/C=C/C=C/C=C/C=C/C=C/C=C/[C@H](O[C@@H]2O[C@H](C)[C@@H](O)[C@H](N)[C@@H]2O)C[C@@H]2O[C@](O)(C[C@@H](O)C[C@@H](O)[C@H](O)CC[C@@H](O)C[C@@H](O)CC(=O)O[C@H]1C)C[C@H](O)[C@H]2C(=O)O` [AMPHOTERICIN B]: the MIC in [2] came out at 25 µg/mL (≈ 27.1 µM); in assay [3] it was 50 µg/mL (≈ 54.1 µM); in assay [5], 25 µg/mL (≈ 27.1 µM); in [6] it was 50 µg/mL (≈ 54.1 µM); in assay [9] it was 25 µg/mL (≈ 27.1 µM).

In the case of `CN[C@@H]1[C@H](O[C@H]2[C@H](O[C@H]3[C@H](O)[C@@H](O)[C@H](N=C(N)N)[C@@H](O)[C@@H]3N=C(N)N)O[C@@H](C)[C@]2(O)C=O)O[C@@H](CO)[C@H](O)[C@H]1O` [STREPTOMYCIN], the minimum inhibitory concentration (MIC) in [1] is 25 µg/mL (≈ 43 µM); in [4], 25 µg/mL (≈ 43 µM); in [7], 50 µg/mL (≈ 86 µM); in assay [8], 12.5 µg/mL (≈ 21.5 µM); in [10] it was 50 µg/mL (≈ 86 µM).

Turning to `COc1ccc(C2CC(=O)C(C)C(c3ccc(OC)cc3)N2C(=O)CCl)cc1` (configuration not stated), the MIC in assay [1] came out at 100 µg/mL (≈ 249 µM); in assay [2], 100 µg/mL (≈ 249 µM); in [3], 50 µg/mL (≈ 124 µM); in assay [4] it was 25 µg/mL (≈ 62.2 µM); in assay [5], 100 µg/mL (≈ 249 µM); in assay [6], 50 µg/mL (≈ 124 µM). The MIC came out at 50 µg/mL (≈ 124 µM) in [7], 200 µg/mL (≈ 498 µM) in assay [8], 25 µg/mL (≈ 62.2 µM) in [9] and 100 µg/mL (≈ 249 µM) in assay [10].

Turning to `O=C(O)c1cn(C2CC2)c2cc(N3CCNCC3)c(F)cc2c1=O` [CIPROFLOXACIN], the MIC stood at 50 µg/mL (≈ 151 µM) in assay [1] and 25 µg/mL (≈ 75.4 µM) in [10].

The record behind these values is ChEMBL document CHEMBL3046827, “Synthesis and antimicrobial activities of N-chloroacetyl-2,6-diarylpiperidin-4-ones” (2007).
